Experimental findings from EP0279458A1, “2-Propyl amine derivatives, processes for their preparation and their use” (GÖDECKE AKTIENGESELLSCHAFT, priority 1987, dated 1988) are described below.

Molecules are shown by their SMILES. Where a name gives a salt, the structure may show the parent alone.

For the experiment, the system named is Proteinkinase C (PKC). In words: Inhibition of PS/DO-mediated protein kinase C activity (32P incorporation into histone H-1). The experiment is classed as biochemical, Hühner. From the text: Zur Klärung des hemmenden Einflusses der erfindungsgemäßen Verbindungen der allgemeinen Formel I auf die Calcium- und Phospholipid-abhängige Proteinkinase (PKC) wurde diese Enzymaktivität ausgehend von einem Hühnermagenextrakt angereichert. In Anlehnung an in der Literatur beschriebene Reinigungsschritte (J. Biol. Chem. 260, S. 15718-15722, 1985) wurde bei der aus 2 Schritten bestehenden Reinigung die Eigenschaft des Enzyms ausgenutzt, in Anwesenheit von Calcium an Zellmembranen zu binden und durch Calciumchelatoren (EGTA) wieder abgelöst zu werden. Beim 1. Anreicherungsschritt erfolgte die Bindung der PKC an Membranen des Hühnermagenextraktes und im 2. Schritt an sogenannte Inside/Out-Vesikel von Erythrozyten. Nach Ablösung von den Erythrozyten-Membranen und Umpufferung lag die PKC-Präparation in 10 mM HEPES, 1 mM DTT, 0,1% PEG 20000, pH 7,5 vor und konnte unter diesen Bedingungen bei -70°C für mehrere Monate ohne Aktivitätsverlust gelagert werden.
Die Aktivität des Enzyms wurde über den Einbau von Phosphor-32-markiertem Phosphat in das durch PKC phosphorylierbare Protein Histon H-1 bestimmt. Der Test enthält dabei folgende Kumponenten: 50 mM HEPES (pH 7,5), 1 mM DTT, 5 mM MgCl₂, ca. 10 µM freies Ca²⁺, 200 µg/ml Histon, 5 µg/ml Phosphatidylserin, 1 µg/ml 1,2-Diolein, 10 µM ATP, eine jeweils geeignete Menge der PKC-Präparation und gegebenenfalls eine Testsubstanz. Die unter Standardbedingungen gemessene Kinase-Aktivität in Anwesenheit von PKC-Aktivatoren (und ohne Testsubstanz) wurde jeweils als 100% gesetzt und die Hemmwirkung der Verbindungen der allgemeinen Formel I prozentual darauf bezogen.
In Tabelle I ist die Inhibierung von PS/DO [PS: Phosphatidylserin, DO: 1,2-Diolein] vermittelter Proteinkinase C-Aktivität angegeben.

On to `CCCCCCCCCCCCCCCCCCOCC(COC(C)=O)N(C)C` (racemic) [Beispiel 1, (±)-2-Dimethylamino-3-octadecyloxy-1-propylacetat · Hydrochlorid], for which the “Inhibierung der PS/ DO-vermittelten PKC-Aktivität (%)” value (konz. 1x10^-5 mol/l, 10 µM) came out at 28%.
`CCCCCCCCCCCCCCCCOCC(COC(C)=O)N(C)C` (racemic) [Beispiel 1a, (±)-2-Dimethylamino-3-hexadecyloxy-1-propylacetat Oxalat]: for the setting “konz. 1x10^-5 mol/l, 10 µM”, the “Inhibierung der PS/ DO-vermittelten PKC-Aktivität (%)” value was found to be 23%.
As to `CCCCCCCCCCCCCCOCC(COC(C)=O)N(C)C` (racemic) [Beispiel 1b, (±)-2-Dimethylamino-3-tetradecyloxy-1-propylacetat Oxalat], the “Inhibierung der PS/ DO-vermittelten PKC-Aktivität (%)” value (konz. 1x10^-5 mol/l, 10 µM) is 36%.
As to `CCCCCCCCCCCCCCCCCCOCC(CO)NCC` (racemic) [Beispiel 2, (±)-2-Ethylamino-octadecyloxy-1-propanol · Hydrochlorid], the “Inhibierung der PS/ DO-vermittelten PKC-Aktivität (%)” value (konz. 1x10^-4 mol/l, 100 µM) is 99%; the “Inhibierung der PS/ DO-vermittelten PKC-Aktivität (%)” value (konz. 1x10^-5 mol/l, 10 µM) is 91%; the “Inhibierung der PS/ DO-vermittelten PKC-Aktivität (%)” value (konz. 1x10^-6 mol/l) is 23%.
On the same counts, the results for `CCCCCCCCCCCCCCCCCCOCC(CO)N(CC)CC.O=C(O)C(=O)O` (racemic) [Beispiel 2a, (±)-2-Diethylamino-3-octadecyloxy-1-propanol Oxalat] are 100%, 78% and 11%.
Consider `CCCCCCCCCCCCCCCCCCOCC(COC(=O)c1ccccc1)[N+](C)(C)C` (racemic) [Beispiel 4, (±)-1-Benzoyloxy-3-octadecyloxy-2-propyl-trimethylammoniumjodid], for which the “Inhibierung der PS/ DO-vermittelten PKC-Aktivität (%)” value by setting is: (konz. 1x10^-4 mol/l, 100 µM) 104%; (konz. 1x10^-5 mol/l, 10 µM) 90%; (konz. 1x10^-6 mol/l) 21%.
Regarding `CCCCCCCCCCCCCCCCCCSCC(N)CO` (racemic) [Beispiel 5, (±)-2-Amino-3-octadecylthio-1-propanol], the “Inhibierung der PS/ DO-vermittelten PKC-Aktivität (%)” value (konz. 1x10^-5 mol/l, 10 µM) turned out to be 39% and the “Inhibierung der PS/ DO-vermittelten PKC-Aktivität (%)” value (konz. 1x10^-6 mol/l) is given as 12%.
Consider `CCCCCCCCCCCCCCCCCCOCC(N)CO` (racemic) [Beispiel 6, (±)-2-Amino-3-octadecyloxy-1-propanol, reference compound], for which the “Inhibierung der PS/ DO-vermittelten PKC-Aktivität (%)” value (konz. 1x10^-5 mol/l, 10 µM) turned out to be 69% and the “Inhibierung der PS/ DO-vermittelten PKC-Aktivität (%)” value (konz. 1x10^-6 mol/l) was found to be 11%.
